Source: ChEMBL document CHEMBL1201862, “PubChem BioAssay data set” (2004)
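Test compounds were applied to cells in 96-well plates for 48 hours at 5 doses. GI50 = concentration required for 50% inhibition of growth.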 The source made the active and inactive calls. No stated cut-off is given here; in the data, active = GI50 up to about 1.1 µM and inactive = higher.

Tests used:
Assay in all cases: NCI-60 cell line screen, 48 h
SW-620 = test system: SW-620
HL-60 = test system: HL-60
OVCAR-4 = test system: OVCAR-4
OVCAR-5 = test system: OVCAR-5
SNB-75 = test system: SNB-75
UO-31 = test system: UO-31
M14 = test system: M14
NCI-H522 = test system: NCI-H522
MCF7 = test system: MCF7
HOP-92 = test system: HOP-92
K562 = test system: K562
SK-OV-3 = test system: SK-OV-3
786-0 = test system: 786-0
COLO 205 = test system: COLO 205
OVCAR-8 = test system: OVCAR-8
SN12C = test system: SN12C
SK-MEL-28 = test system: SK-MEL-28
RPMI-8226 = test system: RPMI-8226
ACHN = test system: ACHN
LOX IMVI = test system: LOX IMVI

SMILES | GI50 (SW-620) | GI50 (HL-60) | GI50 (OVCAR-4) | GI50 (OVCAR-5) | GI50 (SNB-75) | GI50 (UO-31) | GI50 (M14) | GI50 (NCI-H522) | GI50 (MCF7) | GI50 (HOP-92) | GI50 (K562) | GI50 (SK-OV-3) | GI50 (786-0) | GI50 (COLO 205) | GI50 (OVCAR-8) | GI50 (SN12C) | GI50 (SK-MEL-28) | GI50 (RPMI-8226) | GI50 (ACHN) | GI50 (LOX IMVI)
COC1(OC)C2(Cl)C(Cl)=C(Cl)C1(Cl)C1COCC12 (stereo not given) | > 100 µM (inactive) | > 61.4 µM (inactive) | > 100 µM (inactive) | > 100 µM (inactive) | > 100 µM (inactive) | > 100 µM (inactive) | > 100 µM (inactive) | > 100 µM (inactive) | > 100 µM (inactive) | > 81.3 µM (inactive) | > 88.5 µM (inactive) | > 100 µM (inactive) | > 100 µM (inactive) | > 100 µM (inactive) | > 100 µM (inactive) | > 100 µM (inactive) | > 38.7 µM (inactive) | > 72.4 µM (inactive) | > 100 µM (inactive) | > 100 µM (inactive)
CC(C)/C(Cl)=N\OC(=O)Nc1ccc(C#N)cc1 | 1.81 µM (inactive) | 2.56 µM (inactive) | 1.63 µM (inactive) | 15.1 µM (inactive) | 17.7 µM (inactive) | 9.02 µM (inactive) | 3.01 µM (inactive) | 1.75 µM (inactive) | 9.04 µM (inactive) | 1.56 µM (inactive) | 2 µM (inactive) | 17.3 µM (inactive) | 5.12 µM (inactive) | 1.79 µM (inactive) | 16.7 µM (inactive) | 13.7 µM (inactive) | 12.1 µM (inactive) | 2.56 µM (inactive) | 6.95 µM (inactive) | 3.3 µM (inactive)
COc1ccc2c(c1)c(=Cc1ccc(N(C)C)cc1)c1cc(-c3ccccc3)[n+](C)n12 | 0.377 µM (active) | 0.284 µM (active) | 1.28 µM (inactive) | 0.875 µM (active) | 0.00269 µM (active) | 0.596 µM (active) | 0.312 µM (active) | 0.0728 µM (active) | 0.327 µM (active) | 0.187 µM (active) | 0.214 µM (active) | 0.447 µM (active) | 0.423 µM (active) | 0.0246 µM (active) | 0.154 µM (active) | 0.345 µM (active) | 0.634 µM (active) | 0.182 µM (active) | 1.14 µM (inactive) | 0.374 µM (active)
Clc1ccc(Cc2nc3cc(Cl)c(Cl)cc3n2CC2CCCN3CCCCC23)cc1Cl (stereo not given) | 1.48 µM (inactive) | 2.5 µM (inactive) | 3.4 µM (inactive) | 3.13 µM (inactive) | 4.53 µM (inactive) | 0.335 µM (active) | 2.01 µM (inactive) | 1.74 µM (inactive) | 2.38 µM (inactive) | 5.38 µM (inactive) | 3.26 µM (inactive) | 1.11 µM (active) | 2.99 µM (inactive) | 1.94 µM (inactive) | 6.32 µM (inactive) | 4.13 µM (inactive) | 2.99 µM (inactive) | 4.13 µM (inactive) | 4.47 µM (inactive) | 2.44 µM (inactive)
